Columns and labels:
PDK1 = PDK1 assay: activation of GST-PKBα by purified PDK1 with phospholipid vesicles; assay type: biochemical, rabbit; conditions: for activation of PDK1 (in words) / fold-activation of GST-PKBα (PDK1 activity): lipid 10 μM in vesicles of 100 μM PtdCho, 100 μM PtdSer, 30 min at 30° C.; for order of level of activation of the 3-phosphoinositide-dependent kinase (most effective first): rabbit skeletal muscle PDK1, FIG. 6
Protocol: Assay of PDK1. The assay was carried out in two stages; in the first, GST-PKBα was incubated with PDK1 in the presence of MgATP and phospholipid vesicles to permit activation of GST-PKBα.
After 10 min at 30° C., the reactions were terminated by spotting the reaction mixture on to p81 phosphocellulose paper. The papers were washed in phosphoric acid and analysed as described previously. […] The basal GST-PKBα activity is the activity measured in the absence of PDK1.

GST-ΔPH-PDK1 = target: T1, GST-ΔPH-PDK1 (Homo sapiens, UniProt O15530); assay: GST-ΔPH-PDK1 assay: activation of GST-PKBα; assay type: biochemical; conditions: lipid 10 μM in PtdCho/PtdSer vesicles
T1 construct: expressed as a GST-fusion protein in 293 cells (GST-ΔPH-PDK1, residues 1-450); made in house; host or cells: human embryonic kidney 293 cells (pEBG-2T)
Protocol: FIG. 15. Role of the PH domains of PKBα and PDK1. […] The assays were terminated by making the incubations 1% (by vol) in Triton X-100 as in Example 1, and the increase in specific activity of GST-PKBα was determined. The basal activity of GST-PKBα was 2.5 U/mg and that of GST-ΔPH-PKBα was 8 U/mg. At the high concentration of GST-PDK1 used in this assay the rate of activation of full length wild type GST-PKBα is not linear with time whereas the activation of GST-ΔPH-PKBα is linear. When the experiments are carried out at 20-fold lower concentrations of GST-PDK1 a similar extent of activation of wild-type GST-PKBα is achieved as that shown in the figure for GST-ΔPH-PKBα by 2.3 nM GST-PDK1. (B) as in (A) except that 0.5 μg of GST-PKBα was incubated with 2.5 nM […] in the presence of phospholipid vesicles containing 100 μM PtdCho, 100 μM PtdSer and 10 μM of either, sn-1-stearoyl-2-arachidonyl-D-PtdIns(3,4,5)P3 (Track 1); sn-1-stearoyl-2-arachidonyl-L-PtdIns(3,4,5)P3 (Track 2), sn-1,2 di-palmitoyl-D-PtdIns(3,4,5)P3 (Track 3), sn-1,2 di-palmitoyl-D-PtdIns(3,4,5)P3 (Track 4), PtdIns(4,5)P2 (purified from Folch brain fraction Track 5) and sn-1,2 di-palmitoyl-D-PtdIns-3P (Track 6). The results are presented as the increase in the specific activity of GST-PKBα (U/mg), (±SEM for 6-9 determinations, three independent experiments), relative to a control incubation in which GST-PDK1 is omitted.
Assay of GST-PDK1 and GST-DSTPK61 activity. GST-PDK1 and GST-DSTPK61 were diluted appropriately in Buffer B containing 1 mg/ml bovine serum albumin, and assayed for their ability to activate and phosphorylate GST-PKBα [21]. One unit of PDK1 activity was defined as that amount required to increase the basal activity of GST-PKBα by 1 unit of activity in one min. One unit of GST-PKBα activity was that amount of enzyme required to catalyse the phosphorylation of 1 nmol of the peptide RPRAATF (SEQ ID NO: 9) in 1 min in an assay containing 0.1 mM RPRAATF (SEQ ID NO: 9)). […]

GST-PDK1 = target: T2, GST-PDK1 (Homo sapiens, UniProt O15530); assay: GST-PDK1 assay: activation and phosphorylation of GST-PKBα; assay type: biochemical; conditions: lipid 10 μM in PtdCho/PtdSer vesicles
T2 construct: Residues 52-556 of PDK1 were expressed in human embryonic kidney 293 cells; made in house; host or cells: human embryonic kidney 293 cells (pEBG2T)
T2 sequence (O15530 52-556): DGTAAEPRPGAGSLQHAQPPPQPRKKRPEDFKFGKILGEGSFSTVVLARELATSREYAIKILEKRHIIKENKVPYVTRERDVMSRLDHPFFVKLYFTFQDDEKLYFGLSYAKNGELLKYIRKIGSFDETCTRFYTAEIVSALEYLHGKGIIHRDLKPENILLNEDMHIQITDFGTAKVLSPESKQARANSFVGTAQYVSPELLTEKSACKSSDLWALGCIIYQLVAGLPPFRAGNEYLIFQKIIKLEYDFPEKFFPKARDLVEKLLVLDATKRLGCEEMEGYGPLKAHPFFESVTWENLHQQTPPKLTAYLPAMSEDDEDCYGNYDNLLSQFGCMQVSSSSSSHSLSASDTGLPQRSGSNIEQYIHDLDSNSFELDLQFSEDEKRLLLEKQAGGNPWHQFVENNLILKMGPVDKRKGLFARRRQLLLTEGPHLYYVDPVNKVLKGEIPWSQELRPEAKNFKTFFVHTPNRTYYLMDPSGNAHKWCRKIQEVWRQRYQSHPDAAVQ
Protocol: FIG. 12. […] In panels A and C, the assays were terminated by making the incubations 1% (by vol) in TRITON X-100™ (see Ref 21), and the increase in specific activity of GST-PKBα was determined. In panels B and D, the reactions were terminated by making the solutions 1% in SDS, the samples were subjected to SDS/polyacrylamide gel electrophoresis, and the phosphorylation was assessed by autoradiography of the Coomassie blue-stained band corresponding to GST-PKBα.
One unit of PDK1 activity was defined as that amount required to increase the basal activity of GST-PKBα by 1 unit of activity in one min.

HA-PKBα [1] = assay: HA-PKBα activity in transfected 293 cells; assay type: cell-based, human; conditions: unstimulated 293 cells
Protocol: FIG. 14. PKBα is activated by cotransfection with PDK1 in 293 cells. (A) 293 cells were transiently transfected with DNA constructs expressing either HA-PKBα or both HA-PKBα and Myc-PDK1. The cells were then stimulated for 10 min with or without 50 ng/ml IGF1, the HA-PKBα immunoprecipitated from the lysates and assayed. The results are expressed relative to the specific activity of wild type HA-PKBα in unstimulated 293 cells ([…]). No PKBα activity was detected in mock transfections in which the cells were transfected with PCMV5 vector alone (data not shown). (B) 6 μg of protein from each lysate was electrophoresed on a 10% SDS/polyacrylamide gel and immunoblotted using either a monoclonal HA-antibody to detect HA-PKBα or a monoclonal Myc-antibody to detect Myc-PDK1. The molecular mass markers are glycogen phosphorylase (97 kDa), bovine serum albumin (67 kDa) and ovalbumin (43 kDa).
Transfection of 293 cells with HA-tagged PBKα and Myc-PDK1. Human embryonic kidney 293 cells were cultured on 10 cm diameter dishes and transfected with 2 μg/ml pCMV5 DNA constructs encoding for HA-PKBα or HA-PKBα plus Myc-PDK1 [20]. After 24 h the cells were deprived of serum for a further 16 h and then stimulated for 10 min with either […] IGF1 or Buffer. The cells were lysed in 1.0 ml of ice-cold Buffer A, the lysate centrifuged at 4° C. for 10 min at 13,000×g and HA-PKBα immunoprecipitated from aliquots of the supernatant (10 μg protein) and assayed for PKBα with the peptide RPRAATF (SEQ ID NO: 9) as described previously.

HA-PKBα [2] = assay: 32P-labelling of transfected 293 cells: phosphorylation sites of HA-PKBα; assay type: cell-based, human; conditions: unstimulated 293 cells
Protocol: FIG. 15. Overexpression of PDK1 in cells induces phosphorylation of PKBα at Thr308. 293 cells transiently transfected with either wild type HA-PKBα (panels A and C) or HA-PKBα and Myc-PDK1 (panels B and D) were incubated with ^32P-orthophosphate, then treated for 10 min without (panels A and B) or with (panels C and D) 50 ng/ml IGF1. The ^32P-labelled HA-PKBα was immunoprecipitated from the lysates, treated with 4-vinylpyridine, and electrophoresed on 1 10% polyacrylamide gel. The HA-PKBα was excised from the gel, digested with trypsin and chromatographed on a C18 column (see legend to FIG. 13) to resolve the four major phosphopeptides which are phosphorylated at Ser-124, Ser473, Thr308 and Thr450 respectively. The identity of each phosphopeptide was established by phospho-amino acid analysis and solid phase sequencing. Similar results were obtained in two separate experiments for (panels A and C), and in three separate experiments (panels B and D).
^32P-labelling of 293 cells transfected with HA-PKBα or Myc-PDK1. This was carried out essentially as described previously. Briefly, 293 cells were transfected with HA-PKBα, or with HA-PKBα plus Myc-PDK1, washed with phosphate free DMEM, incubated for 4 h with [^32P]-orthophosphate (1 mCi/ml), then stimulated with IGF1 (50 ng/ml) for 5 min. The cells were lysed, and the HA-PKBα immunoprecipitated (using 10 μg of 12CAS antibody per 10 cm dish of cells) or the Myc-PDK1 immunoprecipitated (using 10 μg of 9E10 antibody per 10 cm dish of cells). The immunoprecipitated protein was alkylated with 4-vinylpyridine, subjected to SDS/polyacrylamide gel electrophoresis, digested with trypsin and analysed by chromatography on a C18 column (Alessi et al (1996) EMBO J. 15, 6541-6551).

T1 sequence (P31749 whole entry partner, the tested form may be a part): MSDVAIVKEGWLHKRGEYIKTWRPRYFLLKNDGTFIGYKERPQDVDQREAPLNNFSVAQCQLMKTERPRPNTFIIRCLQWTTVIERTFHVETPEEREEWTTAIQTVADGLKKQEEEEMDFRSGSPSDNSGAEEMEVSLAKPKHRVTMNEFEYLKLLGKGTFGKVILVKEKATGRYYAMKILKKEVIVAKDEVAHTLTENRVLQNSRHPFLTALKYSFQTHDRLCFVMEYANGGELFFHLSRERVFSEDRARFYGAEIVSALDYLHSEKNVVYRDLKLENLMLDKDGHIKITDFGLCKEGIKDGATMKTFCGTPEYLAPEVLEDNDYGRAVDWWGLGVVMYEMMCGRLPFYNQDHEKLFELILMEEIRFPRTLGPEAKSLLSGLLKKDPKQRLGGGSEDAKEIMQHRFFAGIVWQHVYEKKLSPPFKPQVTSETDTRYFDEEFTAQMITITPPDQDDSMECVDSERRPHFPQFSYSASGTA
T1 sequence (O15530 1-450, stated change not applied): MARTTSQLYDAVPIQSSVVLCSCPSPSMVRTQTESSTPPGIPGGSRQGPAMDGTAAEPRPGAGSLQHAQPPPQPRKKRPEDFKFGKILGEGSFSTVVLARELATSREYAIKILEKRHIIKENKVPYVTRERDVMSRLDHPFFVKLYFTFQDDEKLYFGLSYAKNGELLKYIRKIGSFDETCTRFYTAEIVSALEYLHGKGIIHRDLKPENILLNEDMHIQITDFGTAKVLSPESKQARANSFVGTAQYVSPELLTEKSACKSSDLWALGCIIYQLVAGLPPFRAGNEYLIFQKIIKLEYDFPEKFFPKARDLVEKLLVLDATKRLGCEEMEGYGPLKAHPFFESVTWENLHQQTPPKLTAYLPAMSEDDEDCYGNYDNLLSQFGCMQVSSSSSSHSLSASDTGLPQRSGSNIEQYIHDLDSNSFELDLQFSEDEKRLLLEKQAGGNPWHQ

Molecule: CCCCC/C=C\C/C=C\C/C=C\C/C=C\CCCC(=O)OC(COC(=O)CCCCCCCCCCCCCCCCC)COP(=O)(O)OC1C(O)C(OP(=O)(O)O)C(OP(=O)(O)O)C(OP(=O)(O)O)C1O (single isomer, unassigned) [Lipid 2, L-enantiomer of sn-1-stearoyl-2-arachidonyl PtdIns(3,4,5)P3]
- activation of PDK1 (in words) (PDK1): no significant activation
- fold-activation of GST-PKBα (PDK1 activity) (PDK1; 2-arachidonyl PtdIns(3,4,5)P3): 1.7 fold
- activation of PDK1 (in words) (PDK1; listed as L-enantiomer of sn-1-stearoyl-2-arachidonyl PtdIns(3,4,5)P3): almost ineffective
- order of level of activation of the 3-phosphoinositide-dependent kinase (most effective first) (PDK1): 2
- activation of GST-PKBα by GST-ΔPH-PDK1 (in words) (GST-ΔPH-PDK1): no activation

Molecule: CCCCCCCCCCCCCCCC(=O)OCC(COP(=O)(O)OC1C(O)C(O)C(OP(=O)(O)O)C(OP(=O)(O)O)C1O)OC(=O)CCCCCCCCCCCCCCC (centres unmarked) [Lipid 7, sn-1,2 di-palmitoyl PtdIns(3,4)P2]
- fold less effective in activating PDK1 than the sn-1-stearoyl-2-arachidonyl and sn-2-arachidonyl-3-stearoyl derivatives (PDK1): ~3 fold
- activation of PDK1 (in words) (PDK1): as effective as sn-1,2-dipalmitoyl D-PtdIns(3,4,5)P3
- fold-activation of GST-PKBα (PDK1 activity) (PDK1): about 6 fold
- order of level of activation of the 3-phosphoinositide-dependent kinase (most effective first) (PDK1): 4
- activation and phosphorylation of GST-PKBα by GST-PDK1 (in words) (GST-PDK1): as effective as sn-1,2-dipalmitoyl D-PtdIns(3,4,5)P3
- activation of GST-PKBα by GST-ΔPH-PDK1 (in words) (GST-ΔPH-PDK1): very poor

Molecule: CCCCC/C=C\C/C=C\C/C=C\C/C=C\CCCC(=O)O[C@H](COC(=O)CCCCCCCCCCCCCCCCC)COP(=O)(O)O[C@H]1[C@H](O)[C@@H](OP(=O)(O)O)[C@H](OP(=O)(O)O)[C@@H](OP(=O)(O)O)[C@H]1O [Lipid 1, sn-1-stearoyl, 2-arachidonyl D-phosphatidylinositol 3,4,5-trisphosphate]
- activation of PDK1 (in words) (PDK1): potently activated PDK1
- fold-activation of GST-PKBα (PDK1 activity) (PDK1): 13 fold
- activation of GST-PKBα by GST-ΔPH-PDK1 (in words) (GST-ΔPH-PDK1): activated more effectively

B1: Myc-PDK1: Myc-epitope tagged PDK1 transfected into 293 cells (protein)
chain: T2 sequence (O15530 52-556)
modifications: left off: small tags and cut ends
- fold increase of HA-PKBα activity on cotransfection (HA-PKBα [1]): 20 fold
- phosphorylation of HA-PKBα at Thr308 relative to IGF1-stimulated cells transfected with HA-PKBα alone (HA-PKBα [2]; cotransfection): 70%
- phosphorylation of HA-PKBα at Ser473 on cotransfection (in words) (HA-PKBα [2]): did not induce phosphorylation of HA-PKBα at Ser473

Reference: patent US7842488B2, “Polynucleotides encoding a human 3-phosphoinositide- dependent protein kinase” (Medical Research Council, priority 1997, dated 2010)
